One series relates to C57BL/6J mice. In words: Glucokinase activator in vivo screen (blood glucose after oral dosing). As to conditions: oral gavage 50 mg/kg after two hour fast, readings 1, 2, 4 and 6 hours post dose, p≦0.05 for two consecutive assay time points. As for the experimental part: Glucokinase Activator in vivo Screen Protocol: C57BL/6J mice are orally dosed via gavage with Glucokinase (GK) activator at 50 mg/kg body weight following a two hour fasting period. Blood glucose determinations are made five times during the six hour post-dose study period.
Mice (n=6) are weighed and fasted for a two hour period prior to oral treatment.

Broadly, the melting point is the temperature of the solid-liquid transition.

`C/C(=N/O)c1cnc(NC(=O)[C@H](CC2CCCC2)c2ccc(S(C)(=O)=O)cc2)cn1` [Example 34, 3-Cyclopentyl-N-[5-(1-hydroxyimino-ethyl)-pyrazin-2-yl]-2(R)-(4-methanesulfonyl-phenyl)-propionamide] came in with a melting point of 118.8 to 122.4 °C. For the same compound, in the series with C57BL/6J mice, the “decrease in blood glucose compared to vehicle” value is listed as “statistically significant (p≦0.05) decrease in blood glucose”.
On the same counts, the results for `CS(=O)(=O)c1ccc([C@@H](CC2CCCC2)C(=O)Nc2cnc(-c3cccs3)cn2)cc1Cl` [Example 76, 2(R)-(3-Chloro-4-methanesulfonyl-phenyl)-3-cyclopentyl-N-(5-thiophen-2-yl-pyrazin-2-yl)-propionamide] are 97 to 99 °C and “statistically significant (p≦0.05) decrease in blood glucose”.
Turning to `CS(=O)(=O)c1ccc([C@@H](CC2CCCC2)C(=O)Nc2cnc(SCCO)cn2)cc1Cl` [Example 6, 2(R)-(3-Chloro-4-methanesulfonyl-phenyl)-3-cyclopentyl-N-[5-(2-hydroxy-ethylsulfanyl)-pyrazin-2-yl]-propionamide], the melting point lay within 78 to 81 °C. Besides, the “decrease in blood glucose compared to vehicle” value in the series on C57BL/6J mice is “statistically significant (p≦0.05) decrease in blood glucose”.
On the same counts, the results for `CS(=O)(=O)c1ccc([C@@H](CC2CCCC2)C(=O)Nc2cnc(-c3noc(N)n3)cn2)cc1Cl` [Example 17, N-[5-(5-Amino-[1,2,4]oxadiazol-3-yl)-pyrazin-2-yl]-2(R)-(3-chloro-4-methanesulfonyl-phenyl)-3-cyclopentyl-propionamide] are 262 to 264 °C and “statistically significant (p≦0.05) decrease in blood glucose”.
For `CS(=O)(=O)c1ccc([C@@H](CC2CCCC2)C(=O)Nc2cnc(C(=O)NO)cn2)cc1Cl` [Example 29, 5-[2(R)-(3-Chloro-4-methanesulfonyl-phenyl)-3-cyclopentyl-propionylamino]-pyrazine-2-carboxylic acid hydroxyamide], in that order: 134 to 139 °C and “statistically significant (p≦0.05) decrease in blood glucose”.
For `CN(C)c1cnc(NC(=O)[C@H](CC2CCCC2)c2ccc(S(C)(=O)=O)c(Cl)c2)cn1` [Example 15, 2(R)-(3-Chloro-4-methylsulfonyl-phenyl)-3-cyclopentyl-N-(5-dimethylamino-pyrazin-2-yl)-propionamide], in that order: 93.3 to 97.7 °C and “statistically significant (p≦0.05) decrease in blood glucose”.
